Values of other authors in patent publication US20060069069A1, “Methods and compositions for the administration of calcium chelators, bisphosponates and/or citrate compounds and their pharmaceutical uses” (Nanobac Pharmaceuticals, Inc., priority 2004, published 2006).

System: bone resorption
Conditions: versus etidronate; both in vitro and in vivo

## NCCCC(O)(P(=O)(O)O)P(=O)(O)O [alendronate]
  potency relative to etidronate for the prevention of bone resorption: approximately 700 fold
